Measured values published in patent publication US9028856B2, “Synergistic pesticide compositions” (priority 2008, dated 2015).

Key:
[1] = assay type: physicochemical; settings: classified from Log P
[2] = test system: Argentine ant, Linepithema humile; assay: Knockdown/mortality of ant workers under continuous exposure on treated glazed tile; settings: glazed tile
Method in brief: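 0.5% AI imidacloprid in acetone, alone or with 0.1, 1.0 or 5.0% additive (benzenepropanoic acid, oleic acid, methyl oleate, methyl linoleate, methyl palmitate or BHA), 1 ml dried overnight on glazed tile (~161 cm^2). Ten workers confined under continuous exposure, water from 3 h; knockdown/mortality scored at intervals and 24 h; ≥3 replicates.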

[3] = test system: Odorous House ant, Tapinoma sessile; assay: as above; assay type: in vivo
Method in brief: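 Treatments applied to about 161 cm2 glazed tile and dried overnight, with at least three replicates.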

[4] = test system: tropical house mosquito Culex quinquefasciatus (adults, 3 days old); assay: Efficacy of formulations on surfaces (glazed/unglazed tiles, plywood), ten 3 day old mosquitoes, 3 min exposure; assay type: in vivo; settings: EC formulation, 3 minutes exposure
Method in brief: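 Test agents in acetone, 1 ml pipetted onto 15×15 cm glazed tiles (plywood/unglazed tiles also used; 1 cm edge untreated). USDA Petri Dish Method: ten 3-day-old adults held 3 min under a perforated dish, then given a water-soaked cotton pad. Knock-down scored 3 min–4 h, mortality at 24 h; mean of three batches.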

[5] = Table 27, aqueous deltamethrin/adjuvant
[6] = Table 46, Trial 1, fipronil/Compound A in acetone
[7] = Table 47, Trial 2, fipronil/Compound A in acetone
[8] = Table 49, fipronil/adjuvant in acetone
[9] = 2 hr, Table 46, Trial 1, fipronil/Compound A in acetone
[10] = 2 hr, Table 49, fipronil/adjuvant in acetone
[11] = 4 hr, Table 46, Trial 1, fipronil/Compound A in acetone
[12] = 30 min, Table 51, fipronil/adjuvant in acetone, glazed tile
[13] = 60 min, Table 51, fipronil/adjuvant in acetone, glazed tile
[14] = 2 hr, Table 51, fipronil/adjuvant in acetone, glazed tile
[15] = Table 51, fipronil/adjuvant in acetone, glazed tile
[16] = 0.1% = 50 mg Bendiocarb/m^2 on glazed tiles
[17] = Table 4 (Ex. 1), continuous exposure
[18] = Table 7 (Ex. 4), continuous exposure
[19] = Table 8 (Ex. 5), continuous exposure
[20] = Table 10 (Ex. 7), continuous exposure
[21] = Table 12 (Ex. 9), continuous exposure
[22] = Table 14 (Ex. 11), continuous exposure
[23] = Table 16 (Ex. 13), continuous exposure
[24] = Table 19 (Ex. 16), continuous exposure
[25] = Table 20 (Ex. 17), continuous exposure
[26] = 0.1% = 50 mg imidacloprid/m^2 on glazed tiles
[27] = Table 57, Argentine ant, continuous exposure
[28] = 0.02% = 10 mg Ethiprole/m^2 on glazed tiles

CC1(C)[C@H](C(=O)O[C@H](C#N)c2cccc(Oc3ccccc3)c2)[C@@H]1C=C(Br)Br [deltamethrin]
Likelihood of Direct Insect Cuticular Penetration [1]: Fast (classified as “FAST” when it has a Log P value of about >4.0)

CC1(C)[C@H](C(=O)O[C@H](C#N)c2cccc(Oc3ccccc3)c2)[C@@H]1C=C(Br)Br [deltamethrin (1%)]
Average % Mortality after 10 min ([2]; 10 min, Table 27, aqueous deltamethrin/adjuvant): 9% | Average % Mortality after 15 min [2, 5]: 33% | Average % Mortality after 20 min ([2]; 20 min, Table 27, aqueous deltamethrin/adjuvant): 67% | Average % Mortality after 30 min [2, 5]: 82% | Average % Mortality after 20 min ([3]; 20 min, Table 30, aqueous deltamethrin/adjuvant, glazed tile): 43% | Average % Mortality after 60 min ([3]; 60 min, Table 30, aqueous deltamethrin/adjuvant, glazed tile): 80% | Average % Mortality after 90 min ([3]; 90 min, Table 30, aqueous deltamethrin/adjuvant, glazed tile): 90% | Average % Mortality after 2 hr ([3]; 2 hr, Table 30, aqueous deltamethrin/adjuvant, glazed tile): 93%

N#Cc1nn(-c2c(Cl)cc(C(F)(F)F)cc2Cl)c(N)c1[S+]([O-])C(F)(F)F (stereo not drawn) [Fipronil (.001%)]
Average % Mortality after 5 min [2, 6]: 0% | Average % Mortality after 5 min [2, 7]: 0% | Average % Mortality after 15 min [2, 6]: 0% | Average % Mortality after 15 min [2, 7]: 0% | Average % Mortality after 30 min [2, 6]: 0% | Average % Mortality after 30 min [2, 7]: 0% | Average % Mortality after 30 min [2, 8]: 0% | Average % Mortality after 60 min [2, 6]: 0% | Average % Mortality after 60 min [2, 7]: 0% | Average % Mortality after 60 min [2, 8]: 0% | Average % Mortality after 2 hr [2, 9]: 0% | Average % Mortality after 2 hr ([2]; 2 hr, Table 47, Trial 2, fipronil/Compound A in acetone): 0% | Average % Mortality after 2 hr [2, 10]: 0% | Average % Mortality after 3 hr [2, 8]: 3% | Average % Mortality after 4 hr [2, 11]: 74% | Average % Mortality after 4 hr ([2]; 4 hr, Table 47, Trial 2, fipronil/Compound A in acetone): 28% | Average % Mortality after 24 hr [2, 6]: 100% | Average % Mortality after 24 hr [2, 7]: 100% | Average % Mortality after 24 hr [2, 8]: 100% | Average % Mortality after 30 min [3, 12]: 0% | Average % Mortality after 60 min [3, 13]: 0% | Average % Mortality after 2 hr [3, 14]: 0% | Average % Mortality after 24 hr [3, 15]: 100%

CNC(=O)Oc1cccc2c1OC(C)(C)O2 [bendiocarb]
toxicity / efficacy of the substance alone (summary in words) ([3]; odorous house ant, glazed tile): no KD/mortality | Likelihood of Direct Insect Cuticular Penetration [1]: Slow (classified as “SLOW” when the compound has a Log P value of about <2.0) | % KD and Mortality 15′ [4, 16]: 0% | % KD and Mortality 30′ [4, 16]: 0% | % KD and Mortality 1 h [4, 16]: 80% | % KD and Mortality 2 h [4, 16]: 100% | % KD and Mortality 3 h [4, 16]: 100% | % KD and Mortality 4 h [4, 16]: 100% | % KD and Mortality 6 h [4, 16]: 100% | % KD and Mortality 24 h [4, 16]: 100%

N#Cc1nn(-c2c(Cl)cc(C(F)(F)F)cc2Cl)c(N)c1[S+]([O-])C(F)(F)F (stereo not drawn) [Fipronil (.01%)]
Average % Mortality after 5 min [2, 6]: 0% | Average % Mortality after 15 min [2, 6]: 0% | Average % Mortality after 30 min [2, 6]: 0% | Average % Mortality after 30 min [2, 8]: 0% | Average % Mortality after 60 min [2, 6]: 0% | Average % Mortality after 60 min [2, 8]: 0% | Average % Mortality after 2 hr [2, 9]: 0% | Average % Mortality after 2 hr [2, 10]: 0% | Average % Mortality after 3 hr [2, 8]: 0% | Average % Mortality after 4 hr [2, 11]: 47% | Average % Mortality after 24 hr [2, 6]: 100% | Average % Mortality after 24 hr [2, 8]: 100% | Average % Mortality after 30 min [3, 12]: 0% | Average % Mortality after 60 min [3, 13]: 0% | Average % Mortality after 2 hr [3, 14]: 6% | Average % Mortality after 24 hr [3, 15]: 100%

O=[N+]([O-])NC1=NCCN1Cc1ccc(Cl)nc1 [imidacloprid]
Average % Knockdown & Mortality after 2 hr ([2]; 2 hr, Table 22, imidacloprid/tritylchloride in acetone, continuous exposure): 0% | Average % Knockdown & Mortality after 2 hr ([2]; 2 hr, Table 25, imidacloprid/dibutyl sebacate (DBS) in acetone): 0% | Average % Knockdown & Mortality after 4 hr ([2]; 4 hr, Table 25, imidacloprid/dibutyl sebacate (DBS) in acetone): 0% | Average % Knockdown & Mortality after 5 hr ([2]; 5 hr, Table 22, imidacloprid/tritylchloride in acetone, continuous exposure): 4% | Average % Knockdown & Mortality after 3 hr [2, 17]: 0% | Average % Knockdown & Mortality after 7 hr [2, 17]: 0% | Average % Knockdown & Mortality after 3 hr [2, 18]: 3% | Average % Knockdown & Mortality after 7 hr [2, 18]: 3% | Average % Knockdown & Mortality after 15 min [2, 19]: 0% | Average % Knockdown & Mortality after 4 hr [2, 19]: 7% | Average % Knockdown & Mortality after 15 min [2, 20]: 0% | Average % Knockdown & Mortality after 4 hr [2, 20]: 0% | Average % Knockdown & Mortality after 3 hr [2, 21]: 0% | Average % Knockdown & Mortality after 7 hr [2, 21]: 0% | Average % Knockdown & Mortality after 2 hr [2, 22]: 0% | Average % Knockdown & Mortality after 4 hr [2, 22]: 0% | Average % Knockdown & Mortality after 2 hr [2, 23]: 14% | Average % Knockdown & Mortality after 18 hr [2, 23]: 17% | Average % Knockdown & Mortality after 4 hr [2, 24]: 0% | Average % Knockdown & Mortality after 6 hr [2, 24]: 7% | Average % Knockdown & Mortality after 2 hr [2, 25]: 0% | Average % Knockdown & Mortality after 4 hr [2, 25]: 7% | Likelihood of Direct Insect Cuticular Penetration [1]: Slow (classified as “SLOW” when the compound has a Log P value of about <2.0) | % KD and Mortality 15′ [4, 26]: 0% | % KD and Mortality 30′ [4, 26]: 0% | % KD and Mortality 1 h [4, 26]: 0% | % KD and Mortality 2 h [4, 26]: 10% | % KD and Mortality 3 h [4, 26]: 20% | % KD and Mortality 4 h [4, 26]: 20% | % KD and Mortality 6 h [4, 26]: 20% | % KD and Mortality 24 h [4, 26]: 100%

CC[S+]([O-])c1c(C#N)nn(-c2c(Cl)cc(C(F)(F)F)cc2Cl)c1N (stereo not drawn) [Ethiprole (1%)]
Average % Mortality after 30 min [2, 27]: 0% | Average % Mortality after 45 min ([2]; Table 57, Argentine ant, continuous exposure, 45 min): 0% | Average % Mortality after 60 min [2, 27]: 0% | Average % Mortality after 15 min ([2]; Table 57, Argentine ant, continuous exposure, adjuvant = Compound A 1% + Compound B 0.5%): 0% | Average % Knockdown & Mortality after 30 min ([3]; Table 59, Odorous House ant, glazed tile, continuous exposure, 30 min): 0% | Average % Knockdown & Mortality after 45 min ([3]; Table 59, Odorous House ant, glazed tile, continuous exposure, 45 min): 0% | Average % Knockdown & Mortality after 60 min ([3]; Table 59, Odorous House ant, glazed tile, continuous exposure, 60 min): 3% | Average % Knockdown & Mortality after 2 hr ([3]; Table 59, Odorous House ant, glazed tile, continuous exposure, 2 hr): 7% | Average % Knockdown & Mortality after 15 min ([3]; Table 59, Odorous House ant, glazed tile, continuous exposure, adjuvant = Compound A 1% + Compound B 0.5%, 15 min): 0%

CC[S+]([O-])c1c(C#N)nn(-c2c(Cl)cc(C(F)(F)F)cc2Cl)c1N (stereo not drawn) [ethiprole]
mortality in 2 hours ([3]; ethiprole 0.01% in the absence of the adjuvant (FIG. 53)): around 4% | Likelihood of Direct Insect Cuticular Penetration [1]: Fast (classified as “FAST” when it has a Log P value of about >4.0) | % KD and Mortality 15′ [4, 28]: 0% | % KD and Mortality 30′ [4, 28]: 0% | % KD and Mortality 1 h [4, 28]: 0% | % KD and Mortality 2 h [4, 28]: 10% | % KD and Mortality 3 h [4, 28]: 10% | % KD and Mortality 4 h [4, 28]: 10% | % KD and Mortality 6 h [4, 28]: 10% | % KD and Mortality 24 h [4, 28]: 60%
